This is an account of results in patent EP3382005A2, “EX VIVO MODEL FOR NEURODEGENERATIVE DISEASES” (Neuro-Bio Ltd, priority 2017, dated 2018).

In series [1] the target is T1, alpha7 nicotinic receptor (Rattus norvegicus, UniProt Q05941).
T1 construct: endogenous in cells; host or cells: PC12 cells
As to the kind of experiment: Calcium influx test in PC12 cells. It is filed as cell-based. As to conditions: compound alone, higher doses 1 µM to 10 µM.

The next series has as its system PC12 cells. As to the kind of experiment: Cell viability test.

Square brackets hold non-standard residues; d marks the D form. Peptide text beside a SMILES is read from it. Phe(4-COOH) = N[C@@H](Cc1ccc(C(=O)O)cc1)C(=O)O; 2Nal = N[C@@H](Cc1ccc2ccccc2c1)C(=O)O; cisHyp = O=C(O)[C@@H]1C[C@H](O)CN1

T1 sequence (Q05941 23-502): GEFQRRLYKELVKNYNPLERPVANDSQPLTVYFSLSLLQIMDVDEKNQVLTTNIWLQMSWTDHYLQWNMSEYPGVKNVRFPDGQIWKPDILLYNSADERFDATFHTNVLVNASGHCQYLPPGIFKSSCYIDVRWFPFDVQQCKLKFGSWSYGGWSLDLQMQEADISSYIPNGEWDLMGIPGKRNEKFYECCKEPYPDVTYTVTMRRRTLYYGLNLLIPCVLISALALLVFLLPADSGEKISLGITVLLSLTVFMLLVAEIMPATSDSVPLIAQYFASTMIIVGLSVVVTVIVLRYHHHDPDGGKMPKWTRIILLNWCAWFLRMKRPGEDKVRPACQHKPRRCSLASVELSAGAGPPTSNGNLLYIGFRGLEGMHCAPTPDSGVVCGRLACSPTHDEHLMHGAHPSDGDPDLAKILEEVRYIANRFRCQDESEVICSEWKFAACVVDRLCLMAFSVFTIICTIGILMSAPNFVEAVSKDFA

As for `CC(=O)N[C@@H](Cc1ccc2ccccc2c1)C(=O)N[C@@H](Cc1ccc(C(=O)O)cc1)C(=O)N1C[C@@H](O)C[C@H]1C(N)=O` [Tri01, 4-((S)-2-((S)-2-acetamido-3-(naphthalen-2-yl)propanamido)-3-((2S,4S)-2-carbamoyl-4-hydroxypyrrolidin-1-yl)-3-oxopropyl)benzoate] (Ac-[2Nal]-[Phe(4-COOH)]-[cisHyp]-NH2), the “calcium influx by the specific alpha7 agonist PNU282987” value in series [1] was “inactive”. Besides, the PC12 cell viability result with PC12 cells (compound alone, 0.1µM to 10µM) was “toxic in a concentration-dependent manner”; in the series on PC12 cells (in the presence of T30 1µM) it was “potentiates the toxicity induced by T30”.
